{
  "source": "patent US11827624B2",
  "about": "“Covalent immune recruiter compounds for immune cell recognition and associated uses” (McMaster University, priority 2020, dated 2023)",
  "key": {"HEK PSMA+cells": {"tested_on": "HEK PSMA+cells", "assay": "Flow cytometry antibody recruitment to the target cell surface", "format": "cell-based, human", "experimental": "CIR 3 or ARM 11 (640 nM) was incubated with 320 nM antibody (mmAb or mAb) at room temperature overnight. After overnight incubation, a dilution series (1:2, 1:3, 1:3, 1:3) was conducted using each condition stock which was then equilibrated for 90 minutes prior to addition to the assay well plate. HEK293 cells transfected with PSMA, were washed 3× and placed in a flow buffer containing 4% FBS, 0.5 mM EDTA/EGTA, 0.1% Sodium Azide, at a concentration of 2×10^6 Cells/mL. 75 μL of cells were added (150 000 Cells per sample) and kept on ice. 25 μL of antibody+CIR or antibody+ARM conditions prepared above were added to the target cells (experimental antibody concentrations: 80 nM, 40 nM, 13.3 nM, 4.4 nM, 1.5 nM). For the DNP Control, 4.5 mM was added to antibody for 5 minutes, then the CIR/ARM was added, and the solution incubated overnight. […]\nElimination equilibrium of the ARM:antibody through a covalent linkage to CIRs, and its impact on total antibody recruitment to target cells, at different therapeutically relevant antibody concentrations was next evaluated. […] This leads to increases in the mean fluorescence intensity (MFI) of associated cell populations, detectable in flow cytometry.\nAntibody recruitment to the cell surface is proportional to the mean fluorescence intensity (MFI) of cell populations, bound to mmAb antibody complexes comprising CIR 3 or ARM 11. […]"}, "PSMA coated beads": {"tested_on": "PSMA coated beads", "assay": "Flow cytometry ADCP assay, PSMA coated beads and U937 monocytes", "format": "cell-based, human", "conditions": "400 nM CIR 3, 200 nM anti-DNP IgG, 10% FBS+RPMI", "experimental": "24 hours prior to inducing phagocytosis, 6 million U937 monocytes were seeded at 500,000 cells/mL and activated with IFN-γ ([…]). These cells were then counted and washed twice with serum free assay media (neat RPMI). Cells were then suspended to a concentration of 1 million cells/mL and stained with 1.9 μM Vybrant™ DiD Cell-Labelling Solution for 30 minutes (37° C., 5% CO2). Cells were then washed 3× with warm assay media (AM, 10% Ultra Low IgG FBS in RPMI) and resuspended to a concentration of 1.5 million cells/mL for use.\n5.6 million YG strep beads were washed 3× with PBS and resuspended in 150 μL of a saturating concentration of biotinylated-PSMA solution. This was allowed to incubate at 4° C. for 1 hour and then washed 3× with serum free AM. The beads were resuspended with AM to a concentration of 15 million beads/mL for use.\nAll stocks were made in AM. The initial anti-DNP antibody stock solution was made (320 μL of 200 nM). 75 μL of this was removed and 0.4 μL of PMPA solution was added (250 mM in DMSO). […] Beads were detected in the PE-Cy7 channel, monocytes were detected in the APC Cy7 channel, PSMA loading was confirmed with the Alexa 647 channel. […] ADCP was determined by plotting monocyte stain against bead stain, and was quantified as % Target Phagocytosis=(Double Positive Events)/PSMA Bead Target Events+Double Positive Events×100. […]"}},
  "data": [
    {"smiles": "O=C(O)CC[C@H](NC(=O)N[C@@H](CCCCNC(=O)NCCOCCOCCOCCOCCOCCOCCOCCOC(=O)n1cnc(CCNC(=O)CNc2ccc([N+](=O)[O-])cc2[N+](=O)[O-])c1)C(=O)O)C(=O)O", "note": "[CIR 3]", "values": [
      {"measurement": "total antibody recruitment to the target cell surface (MFI)", "setting": "HEK PSMA+cells; higher antibody concentrations (40-80 nM)", "value": "comparable efficiencies"},
      {"measurement": "total antibody recruitment to the target cell surface (MFI)", "setting": "HEK PSMA+cells; sub-saturating mAb or mmAb (<40 nM), 37° C.", "value": "more total antibody recruitment to the target cell surface compared to ARM 11"},
      {"measurement": "ADCP of PSMA coated beads", "setting": "PSMA coated beads", "value": "could selectively affect ADCP of PSMA coated target beads via covalent recruitment of anti-DNP, in a time dependent manner"}
    ]}
  ]
}
